Measured values published in paper PMC10764104, “Discovery of Molecular Glue Degraders via Isogenic Morphological Profiling” (ACS Chemical Biology, 2023).

Biological target: T1, GSPT2 G566N (Homo sapiens, UniProt Q8IYD1, G566N)
T1 construct: expressed in transfected cells; host or cells: RKO cells, lentiviral transduction, puromycin-selected
Assay: Western blot (HA-tag) of G-loop mutant GSPT2 in RKO cells
Type: cell-based
Details: RKO cells stably overexpressing HA-GSPT2 G566N, 16 h; 10 μM FL2-14 or 10 nM CC-885
Description: Figure 3 FL2-14 is a selective GSPT2 molecular glue degrader. (A) Structure of FL2-14 comprising fluorosulfate scaffold FL2 (black) and tail group modification 14 (blue). (B) DMSO-normalized quantitative proteomics after 16 h of treatment with FL2-14 (10 μM) in RKO WT (n = 2). […] (C) Structural alignment of AlphaFold models of GSPT1 (AF-P15170-F1-model_v4 in gray) and GSPT2 (AF-Q8IYD1-F1-model_v4 in blue). (D) Validation of GSPT2 degradation by FL2-14. […] (E) Dose–response of FL2-14 in RKO and HEK293T cells. Cells were treated with the FL2-14 (0 to 10 μM) for 16 h. (F) Degradation of GSPT2^WT or GSPT2^G566N.
Prediction of the G‐loop degron sequence in GSPT2
We first compiled all CRBN degron sequences with known crystal structures (Table S 2). We subsequently discarded 6UML as its degron sequence included an alanine instead of the typical glycine observed in the seventh amino acid residue of other degron sequences, leaving six degron sequences. We then scanned the latest AlphaFold structure of GSPT215 for a potential stretch of 10 amino acids that would align best with each degron sequence. We yielded the same stretch of amino acid residues from position 560 to 569 ([…]) and RMSD values under 0.5 Å.
Table S 2: List of crystal structures used for the computational prediction of the G‐loop degron sequence […]
PDB code Resolution (Å) Chain Segment Sequence Reference
Analysis of G‐loop mutation […]

T1 sequence (Q8IYD1 whole entry G566N): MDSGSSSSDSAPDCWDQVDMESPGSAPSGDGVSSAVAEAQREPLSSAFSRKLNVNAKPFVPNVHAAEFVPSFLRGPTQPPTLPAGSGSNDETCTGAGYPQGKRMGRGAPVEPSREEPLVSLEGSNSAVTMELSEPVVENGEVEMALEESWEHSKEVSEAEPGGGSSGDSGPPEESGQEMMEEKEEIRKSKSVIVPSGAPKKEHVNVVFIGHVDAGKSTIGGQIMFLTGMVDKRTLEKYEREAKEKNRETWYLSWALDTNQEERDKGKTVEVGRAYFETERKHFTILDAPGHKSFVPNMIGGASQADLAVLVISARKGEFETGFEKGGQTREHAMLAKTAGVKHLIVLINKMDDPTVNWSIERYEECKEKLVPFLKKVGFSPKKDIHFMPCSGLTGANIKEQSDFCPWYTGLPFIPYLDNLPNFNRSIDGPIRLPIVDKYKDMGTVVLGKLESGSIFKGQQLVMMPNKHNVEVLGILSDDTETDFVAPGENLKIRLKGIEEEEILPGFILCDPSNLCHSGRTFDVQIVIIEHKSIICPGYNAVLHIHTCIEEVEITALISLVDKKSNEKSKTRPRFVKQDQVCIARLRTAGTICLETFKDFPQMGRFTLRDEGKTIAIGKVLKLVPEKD

Cc1ccc(NC(=O)NCc2ccc3c(c2)CN(C2CCC(=O)NC2=O)C3=O)cc1Cl (stereo not shown) [CC-885, reference compound]
degradation of HA-tagged GSPT2 G566N (glycine of G-loop replaced by asparagine): rescued degradation of GSPT2
